Source: patent publication US9527853B2, “Fused triazole derivatives as gamma secretase modulators” (Ares Trading S.A., priority 2012, dated 2016)

Legend:
AβTotal = assay: Amyloidβ peptide release (AβTotal) assay, AlphaLisa on supernatant of APPswe-HEK cells; format: cell-based, human; conditions: 24 hours, ratio Abtot versus Ab42
Procedure: (§1) Amyloidβ Peptide Release (Aβ42 & AβTotal) Assay to Determine IC50 Values.
(§2) Amyloidβ peptide release (Aβ42 & AβTotal) assay are performed in 384 well microtiter plates (Perkin Elmer AlphaPlate #6008350) in a final volume of 20 μl, using supernatant coming from APPswe-HEK cells exposed to test compounds. Compounds are dissolved in and diluted in 100% DMSO and incubated with APPswe-HEK cells for 24 hours a 37° C. in 5% CO2. The supernatant from APPswe-HEK cells are mixed with antibodies: for Aβ42 detection: AlphaLisa Amyloid β 1-42 Kit (Perkin Elmer AL203L) Anti-Amyloid β1-42-specific antibody acceptor beads, biotinylated anti-Amyloid “β1-42” antibody and streptavidin (SA) donor beads diluted in AlphaLisa buffer (to the instructions of the supplier). For Aβ total detection: Custom Anti-Amyloid βtotal acceptor beads (6E10 acceptor beads), biotinylated anti-Amyloid “β1-42” antibody (Perkin Elmer AL203L) and streptavidin (SA) donor beads diluted in AlphaLisa buffer (to the instructions of the supplier). After addition of supernatant to the antibody mix, the assay is incubated 4 h and 30 minutes. AmyloidP peptide release (Aβ42 & AβTotal) is measured with a Pherastar FS (BMG) multimode reader using the alphascreen module.

Aβ42 = assay: Amyloidβ peptide release (Aβ42) assay, AlphaLisa on supernatant of APPswe-HEK cells; format: cell-based; conditions: Homo sapiens, 24 hours incubation with compound, read-out: Ab42 IC50 Ranges
Procedure: as §1, §2

| IC50 (Aβ42) [nM] | SMILES | Abtot/Ab42 selectivity ranges (AβTotal) |
| --- | --- | --- |
| 150 to 500 | COc1cc(Nc2nnn3c2CCCC3c2ccc(F)cc2Cl)ccc1-n1cnc(C)c1 (centres unmarked) [Example 1, 7-(2-chloro-4-fluorophenyl)-N-(3-methoxy-4-(4-methyl-1H-imidazol-1-yl)phenyl)-4,5,6,7-tetrahydro-[1,2,3]triazolo[1,5-a]pyridin-3-amine] | b (b: 100 fold > selectivity ≧ 50 fold) |
| 150 to 500 | COc1cc(Nc2nnn3c2CCCC3c2ccccc2C(F)(F)F)ccc1-n1cnc(C)c1 (centres unmarked) [Example 2] | a (a: selectivity ≧ 100 fold) |
| 150 to 500 | Cc1cn(-c2ccc(Nc3nnn4c3CCCC4c3ccc(F)cc3Cl)cc2F)cn1 (centres unmarked) [Example 3, 7-(2-chloro-4-fluorophenyl)-N-(3-fluoro-4-(4-methyl-1H-imidazol-1-yl)phenyl)-4,5,6,7-tetrahydro-[1,2,3]triazolo[1,5-a]pyridin-3-amine] | b (b: 100 fold > selectivity ≧ 50 fold) |
| 150 to 500 | COc1cc(Nc2nnn3c2CCCC3c2ccc(Cl)cc2)ccc1-n1cnc(C)c1 (centres unmarked) [Example 4, 7-(4-chlorophenyl)-N-(3-methoxy-4-(4-methyl-1H-imidazol-1-yl)phenyl)-4,5,6,7-tetrahydro-[1,2,3]triazolo[1,5-a]pyridin-3-amine] | b (b: 100 fold > selectivity ≧ 50 fold) |
| 150 to 500 | COc1cc(Nc2nnn3c2CCCC3c2ccc(Cl)c(Cl)c2)ccc1-n1cnc(C)c1 (centres unmarked) [Example 5, 7-(3,4-dichlorophenyl)-N-(3-methoxy-4-(4-methyl-1H-imidazol-1-yl)phenyl)-4,5,6,7-tetrahydro-[1,2,3]triazolo[1,5-a]pyridin-3-amine] | b (b: 100 fold > selectivity ≧ 50 fold) |
| 150 to 500 | COc1cc(Nc2nnn3c2CCCC3c2cccc(C(F)(F)F)c2)ccc1-n1cnc(C)c1 (centres unmarked) [Example 6, N-(3-methoxy-4-(4-methyl-1H-imidazol-1-yl)phenyl)-7-(3-(trifluoromethyl)phenyl)-4,5,6,7-tetrahydro-[1,2,3]triazolo[1,5-a]pyridin-3-amine] | b (b: 100 fold > selectivity ≧ 50 fold) |
| 150 to 500 | COc1cc(Nc2nnn3c2CCCC3c2ccc(F)cc2)ccc1-n1cnc(C)c1 (centres unmarked) [Example 7, 7-(4-fluorophenyl)-N-(3-methoxy-4-(4-methyl-1H-imidazol-1-yl)phenyl)-4,5,6,7-tetrahydro-[1,2,3]triazolo[1,5-a]pyridin-3-amine] | b (b: 100 fold > selectivity ≧ 50 fold) |
| 150 to 500 | COc1cc(Nc2nnn3c2CCC3c2ccc(Cl)cc2)ccc1-n1cnc(C)c1 (centres unmarked) [Example 8, 6-(4-chlorophenyl)-N-(3-methoxy-4-(4-methyl-1H-imidazol-1-yl)phenyl)-5,6-dihydro-4H-pyrrolo[1,2-c][1,2,3]triazol-3-amine] | a (a: selectivity ≧ 100 fold) |
| 150 to 500 | Cc1cc(-c2ccc(Nc3nnn4c3CCC4c3ccc(Cl)cc3)cc2)ccn1 (centres unmarked) [Example 9] | a (a: selectivity ≧ 100 fold) |
| 150 to 500 | COc1cc(Nc2nnn3c2CCC3c2ccc(F)cc2)ccc1-n1cnc(C)c1 (centres unmarked) [Example 10, 6-(4-fluorophenyl)-N-(3-methoxy-4-(4-methyl-1H-imidazol-1-yl)phenyl)-5,6-dihydro-4H-pyrrolo[1,2-c][1,2,3]triazol-3-amine] | a (a: selectivity ≧ 100 fold) |
| 150 to 500 | COc1cc(Nc2nnn3c2CCC3c2ccccc2Cl)ccc1-n1cnc(C)c1 (centres unmarked) [Example 11, 6-(2-chlorophenyl)-N-(3-methoxy-4-(4-methyl-1H-imidazol-1-yl)phenyl)-5,6-dihydro-4H-pyrrolo[1,2-c][1,2,3]triazol-3-amine] | b (b: 100 fold > selectivity ≧ 50 fold) |
| ≤ 150 | COc1cc(NC(=O)c2nnn3c2CCCC3c2ccc(Cl)cc2)ccc1-n1cnc(C)c1 (centres unmarked) [Example 12, 7-(4-chlorophenyl)-N-(3-methoxy-4-(4-methyl-1H-imidazol-1-yl)phenyl)-4,5,6,7-tetrahydro-[1,2,3]triazolo[1,5-a]pyridine-3-carboxamide] | b (b: 100 fold > selectivity ≧ 50 fold) |
| 150 to 500 | Cc1cn(-c2ccc(NC(=O)c3nnn4c3CCCC4c3ccc(Cl)cc3)cc2C#N)cn1 (centres unmarked) [Example 13, 7-(4-chlorophenyl)-N-(3-cyano-4-(4-methyl-1H-imidazol-1-yl)phenyl)-4,5,6,7-tetrahydro-[1,2,3]triazolo[1,5-a]pyridine-3-carboxamide] | c (c: 50 fold > selectivity ≧ 10 fold) |
| 150 to 500 | Cc1cn(-c2ccc(NC(=O)c3nnn4c3CCCC4c3ccc(Cl)cc3)cc2F)cn1 (centres unmarked) [Example 14, 7-(4-chlorophenyl)-N-(3-fluoro-4-(4-methyl-1H-imidazol-1-yl)phenyl)-4,5,6,7-tetrahydro-[1,2,3]triazolo[1,5-a]pyridine-3-carboxamide] | c (c: 50 fold > selectivity ≧ 10 fold) |
| 500 to 1000 | COc1nc(NC(=O)c2nnn3c2CCCC3c2ccc(Cl)cc2)ccc1-n1cnc(C)c1 (centres unmarked) [Example 15, 7-(4-chlorophenyl)-N-(6-methoxy-5-(4-methyl-1H-imidazol-1-yl)pyridin-2-yl)-4,5,6,7-tetrahydro-[1,2,3]triazolo[1,5-a]pyridine-3-carboxamide] | c (c: 50 fold > selectivity ≧ 10 fold) |
| 150 to 500 | COc1cc(NC(=O)c2nnn3c2CCCC3c2ccc(Cl)cc2)ccc1-c1ccnc(C)c1 (centres unmarked) [Example 16, 7-(4-chlorophenyl)-N-(3-methoxy-4-(2-methylpyridin-4-yl)phenyl)-4,5,6,7-tetrahydro-[1,2,3]triazolo[1,5-a]pyridine-3-carboxamide] | c (c: 50 fold > selectivity ≧ 10 fold) |
| 150 to 500 | COc1cc(NC(=O)c2nnn3c2CCCC3c2ccc(F)cc2Cl)ccc1-n1cnc(C)c1 (centres unmarked) [Example 17, 7-(2-chloro-4-fluorophenyl)-N-(3-methoxy-4-(4-methyl-1H-imidazol-1-yl)phenyl)-4,5,6,7-tetrahydro-[1,2,3]triazolo[1,5-a]pyridine-3-carboxamide] | c (c: 50 fold > selectivity ≧ 10 fold) |
| 150 to 500 | COc1cc(NC(=O)c2nnn3c2CCCC3c2ccccc2C(F)(F)F)ccc1-n1cnc(C)c1 (centres unmarked) [Example 18, N-(3-methoxy-4-(4-methyl-1Himidazol-1-yl)phenyl)-7-(2-(trifluoromethyl)phenyl)-4,5,6,7-tetrahydro-[1,2,3]triazolo[1,5-a]pyridine-3-carboxamide] | c (c: 50 fold > selectivity ≧ 10 fold) |
| ≤ 150 | COc1cc(NC(=O)c2nnn3c2CCCC3c2ccc(Cl)c(Cl)c2)ccc1-n1cnc(C)c1 (centres unmarked) [Example 19, 7-(3,4-dichlorophenyl)-N-(3-methoxy-4-(4-methyl-1H-imidazol-1-yl)phenyl)-4,5,6,7-tetrahydro-[1,2,3]triazolo[1,5-a]pyridine-3-carboxamide] | b (b: 100 fold > selectivity ≧ 50 fold) |
| 150 to 500 | COc1cc(NC(=O)c2nnn3c2CCCC3c2ccc(F)cc2)ccc1-n1cnc(C)c1 (centres unmarked) [Example 20, 7-(4-fluorophenyl)-N-(3-methoxy-4-(4-methyl-1H-imidazol-1-yl)phenyl)-4,5,6,7-tetrahydro-[1,2,3]triazolo[1,5-a]pyridine-3-carboxamide] | b (b: 100 fold > selectivity ≧ 50 fold) |
| < 1000 | Cc1cc(-c2ccc(NC(=O)c3nnn4c3CCCC4c3ccc(F)cc3)cc2)ccn1 (centres unmarked) [Example 21, 7-(4-fluorophenyl)-N-(4-(2-methylpyridin-4-yl)phenyl)-4,5,6,7-tetrahydro-[1,2,3]triazolo[1,5-a]pyridine-3-carboxamide] | d (d: 10 fold > selectivity) |
| 150 to 500 | COc1cc(NC(=O)c2nnn3c2CCCC3c2cccc(C(F)(F)F)c2)ccc1-n1cnc(C)c1 (centres unmarked) [Example 22, N-(3-methoxy-4-(4-methyl-1H-imidazol-1-yl)phenyl)-7-(3-(trifluoromethyl)phenyl)-4,5,6,7-tetrahydro-[1,2,3]triazolo[1,5-a]pyridine-3-carboxamide] | b (b: 100 fold > selectivity ≧ 50 fold) |
| ≤ 150 | COc1cc(NC(=O)c2nnn3c2CCC[C@@H]3c2ccc(Cl)cc2)ccc1-n1cnc(C)c1 [Example 23, (R)-7-(4-chlorophenyl)-N-(3-methoxy-4-(4-methyl-1H-imidazol-1-yl)phenyl)-4,5,6,7-tetrahydro-[1,2,3]triazolo[1,5-a]pyridine-3-carboxamide] | b (b: 100 fold > selectivity ≧ 50 fold) |
| 150 to 500 | COc1cc(NC(=O)c2nnn3c2CCC[C@H]3c2ccc(Cl)cc2)ccc1-n1cnc(C)c1 [Example 24, (S)-7-(4-chlorophenyl)-N-(3-methoxy-4-(4-methyl-1H-imidazol-1-yl)phenyl)-4,5,6,7-tetrahydro-[1,2,3]triazolo[1,5-a]pyridine-3-carboxamide] | b (b: 100 fold > selectivity ≧ 50 fold) |
| ≤ 150 | COc1cc(NC(=O)c2nnn3c2CCCC3c2ccc(C(F)(F)F)cc2)ccc1-n1cnc(C)c1 (centres unmarked) [Example 25, N-(3-methoxy-4-(4-methyl-1H-imidazol-1-yl)phenyl)-7-(4-(trifluoromethyl)phenyl)-4,5,6,7-tetrahydro-[1,2,3]triazolo[1,5-a]pyridine-3-carboxamide] | c (c: 50 fold > selectivity ≧ 10 fold) |
